Values of other authors, collected in US20110104257A1, “POLYMORPHISMS PREDICTIVE OF PLATINUM-COORDINATING COMPOUND-INDUCED OTOTOXICITY” (priority 2008, published 2011).
Like-named read-outs stand apart in the source and are kept apart here.

Key:
[1] = test system: aminoglycoside ototoxicity; conditions: Guinea pig; note: key: +, low efficacy; ++, moderate efficacy; +++, high efficacy
[2] = test system: cisplatin ototoxicity; conditions: Rat
[3] = test system: aminoglycoside ototoxicity; set-up: key to the marks not given beside the values; conditions: Gentamicin; Mouse; note: key: +, low efficacy; ++, moderate efficacy; +++, high efficacy
[4] = test system: cisplatin ototoxicity; conditions: species cell empty
[5] = test system: cisplatin ototoxicity; set-up: key to the marks not given beside the values; conditions: Guinea pig
[6] = mice
[7] = test system: cisplatin ototoxicity; set-up: key to the marks not given beside the values; conditions: Chinchilla
[8] = test system: aminoglycoside ototoxicity; set-up: key to the marks not given beside the values; conditions: Gentamicin; Rat; note: key: +, low efficacy; ++, moderate efficacy; +++, high efficacy
[9] = test system: cisplatin ototoxicity; set-up: key to the marks not given beside the values; conditions: Hamster

For c1ccc(-c2ccccn2)nc1 [2,2-DPD, 2,2′-dipyridyl], which “Efficacy of protective agent against aminoglycoside ototoxicity” value (shortened to “Efficacy of protective agent”) ([1]; Gentamicin) is on record?
Its value is “++”.

For CC(S)C(=O)NCC(=O)O (stereo not shown) [Tiopronin], which “Degree of protection against cisplatin ototoxicity” value (“Degree of protection” below) [2] is on record?
The value was “++”.

With Glutathione ester as the molecule, how does the “Degree of protection” value [2] read?
The value was “+”.

Which “Degree of protection” value [2] does the source give for Methylthiobenzoic acid here?
Its value is “++”.

Which “Degree of protection” value [2] does the source give for N=C(N)NN [Aminoguanidine] here?
Its value is “++”.

With [Cl-].[Cl-].[Mn+2].c1cc2nc(c1)CN[C@@H]1CCCC[C@H]1NCCN[C@@H]1CCCC[C@H]1NC2 [M40403] as the molecule, how does the “Efficacy of protective agent” value [3] read?
Its value is “++”.

And the “Degree of protection” value [4]?
The value was 0.

For CCSCc1ccc2c(c1)c1c3c(c4c5cc(CSCC)ccc5n5c4c1n2[C@H]1C[C@](O)(C(=O)OC)[C@]5(C)O1)CNC3=O [CEP1347], which “Efficacy of protective agent” value ([1]; Gentamicin) is on record?
The value was “+”.

With Cc1c(C)c2c(c(C)c1O)CCC(C)(C(=O)O)O2 (stereo not shown) [Trolox] as the molecule, how does the “Degree of protection” value [5] read?
The value was “++”.

For C=C(CC)C(=O)c1ccc(OCC(=O)O)c(Cl)c1Cl [Ethacrynic acid], which “Efficacy of protective agent” value ([1]; Gentamicin) is on record?
The value was “+”.

With OC[C@H]1O[C@@H](n2cnc3c(NC4CCCC4)nc(Cl)nc32)[C@H](O)[C@@H]1O [CCPA, 2-chloro-N-cyclopentyladenosine] as the molecule, how does the “Degree of protection” value [4] read?
The value was “++”.

Which “toxicity as monitored by renal dysfunction (creatinine and BUN)” value [6] does the source give for C[S+](CC[C@H](N)C(=O)O)C[C@H]1O[C@@H](n2cnc3c(N)ncnc32)[C@H](O)[C@@H]1O (stereo partly shown) [SAM, S-adenosyl methionine] here?
Its value is “not toxic”.

With NS(=O)(=O)C#Cc1ccccc1 [Pifithrin] as the molecule, how does the “Degree of protection” value [4] read?
Its value is “++”.

Which “Degree of protection” value [5] does the source give for Z-DEVD-fluoromethyl ketone here?
Its value is “+++”.

Which results are given for Cc1c(C)c2c(c(C)c1O)CC[C@@](C)(CCC[C@H](C)CCC[C@H](C)CCCC(C)C)O2 [α-Tocopherol]?
Efficacy of protective agent against aminoglycoside ototoxicity ([1]; Gentamicin): +++; Degree of protection against cisplatin ototoxicity [5]: ++; Degree of protection against cisplatin ototoxicity [2]: ++

Which “Degree of protection” value [7] does the source give for C[C@H](Cc1ccccc1)Nc1ncnc2c1ncn2[C@@H]1O[C@H](CO)[C@@H](O)[C@H]1O [R-PIA] here?
The value was “++”.

Which “Efficacy of protective agent” value ([1]; Amikacin) does the source give for NCC[C@H](O)C(=O)N[C@@H]1C[C@H](N)[C@@H](O[C@H]2O[C@H](CN)[C@@H](O)[C@H](O)[C@H]2O)[C@H](O)[C@H]1O[C@H]1O[C@H](CO)[C@@H](O)[C@H](N)[C@H]1O [Amakacin preconditioning] here?
The value was “++”.

Which “Efficacy of protective agent” value [8] does the source give for COC(=O)[C@H](CCSC)NC(=O)c1ccc(NC[C@@H](N)CS)cc1-c1ccccc1 [FTI277] here?
The value was “+++”.

With SOD1: SOD1, protective agent as the molecule, how does the “Efficacy of protective agent” value ([1]; Kanamycin + Ethacrynic acid) read?
Its value is “++”.

Which results are given for CSCC[C@@H](N)C(=O)O [D-methionine]?
Efficacy of protective agent against aminoglycoside ototoxicity ([1]; Gentamicin): ++; Degree of protection against cisplatin ototoxicity [2]: +++

With Nc1nc2c(ncn2[C@@H]2O[C@H](COP(=O)(O)OP(O)(O)=S)[C@@H](O)[C@H]2O)c(=O)[nH]1 [GDP-βs] as the molecule, how does the “Efficacy of protective agent” value [8] read?
Its value is “+++”.

For N.N.[Cl][Pt][Cl] [cisplatin], which “severe, permanent, bilateral hearing loss, share of patients” value (adult patients) is on record?
Its value is 10-25%.

And the “severe, permanent, bilateral hearing loss, share of patients” value (children)?
The value was 41-61%.

And the “Permanent hearing loss, frequency” value (children less than 5 years old)?
Its value is 48%.

And the “severe, permanent, bilateral hearing loss, share of patients” value (patients receiving high doses (>400 mg/m^2))?
The value was 50%.

What about the “Permanent hearing loss, share of patients” value (patients receiving standard doses of cisplatin) of the same molecule?
Its value is 25%.

Which “Efficacy of protective agent” value ([1]; Amikacin) does the source give for O=C(O)CCCC[C@@H]1CCSS1 (racemic) [Lipoic acid] here?
Its value is “+++”.

With CSCC[C@H](NC(=O)[C@H](Cc1ccccc1)NC[C@@H](NC[C@@H](N)CS)C(C)C)C(=O)O [B581] as the molecule, how does the “Efficacy of protective agent” value [8] read?
Its value is “++”.

Which “Degree of protection” value [5] does the source give for Z-LEKD-fluoromethyl ketone here?
Its value is “+++”.

Which “Degree of protection” value [9] does the source give for NCCCNCCSP(=O)(O)O [Amifostine] here?
Its value is “+++”.

B1: SOD2: SOD2, protective agent (protein, UniProt P04179 25-222, looked up)
Superoxide dismutase [Mn], …: KHSLPDLPYDYGALEPHINAQIMQLHHSKHHAAYVNNLNVTEEKYQEALAKGDVTAQIALQPALKFNGGGHINHSIFWTNLSPNGGGEPKGELLEAIKRDFGSFDKFKEKLTAASVGVQGSGWGWLGFNKERGHLQIAACPNQDPLQGTTGLIPLLGIDVWEHAYYLQYKNVRPDYLKAIWNVINWENVTERYMACKK
With B1 as the molecule, how does the “Efficacy of protective agent” value ([1]; Kanamycin + Ethacrynic acid) read?
The value was “++”.
